Test system: polycystin-2L1
Format: cell-based
Conditions: for Effect of extracellular reducing agents on polycystin-2L1 current: WT polycystin-2L1
Experimental: Electrophysiology. Ciliary ion currents were recorded using borosilicate glass electrodes polished to resistances of 14-22 MΩ using the cilium patch method previously described^32. Whole cell electrodes used to measure poly cystin-2L1 currents were fire polished to 1.5-4 MΩ resistances. Unless otherwise stated, whole cilia ionic currents were recorded in symmetrical [Na^+]. The pipette standard internal solution contained (in mM): 90 NaMES, 10 NaCl, 10 HEPES, 10 Na4-BAPTA (Glycine, N, N′-[1,2-ethanediylbis(oxy-2,1-phenylene)]bis[N-(carboxymethyl)]-,tetrasodium); pH was adjusted to 7.3 using NaOH. Standard bath solution contained 140 NaCl, 10 HEPES, 1.8 CaCl2); pH 7.4. All solutions were osmotically balanced to 295 (±6) mOsm with mannitol. Extracellular solutions containing TCEP and GSH were used within six hours of formulation. Data were collected using an Axopatch 200B patch clamp amplifier, Digidata 1440A, and pClamp 10 software. Whole-cilium and excised patch currents were digitized at 25 kHz and low-pass filtered at 10 kHz. In the whole cilium configuration, the holding potential was −60 mV and then depolarized using a 400 ms voltage ramp from −100 mV to 100 mV. The whole cell recordings of polycystin-2L1 currents were either activated by the same ramp protocol or by 100 ms depolarizations to 100 mV from a −100 mV holding potential. External conditions were controlled using a Warner Perfusion Fast-Step (SF-77B) system in which the patched cilia and electrode were held in the perfusate stream. Data were analyzed by Igor Pro 7.00 (Wavemetrics, Lake Oswego, Oreg.). The polycystin-2 open probability and the polycystin-2L1 tail current-voltage relationships were fit to a Boltzmann function, f(x)=1/(1+exp[V−V1/2]/k) to estimate voltage of half-maximal activation of current (V1/2).

[Gd] [gadolinium]
Block of polycystin-2L1 currents by trivalent ions (10 μM, plasma membrane of HEK cells): blocked

O=C(O)CCP(CCC(=O)O)CCC(=O)O [TCEP, tris-2-carboxyethyl phosphine]
Effect of extracellular reducing agents on polycystin-2L1 current: near complete loss of current

N[C@@H](CCC(=O)N[C@@H](CS)C(=O)NCC(=O)O)C(=O)O [GSH, reduced glutathione]
Effect of extracellular reducing agents on polycystin-2L1 current: near complete loss of current

Reference: patent US20210369677A1, “SMALL MOLECULE ACTIVATORS OF POLYCYSTIN-2 (PKD2) AND USES THEREOF” (Northwestern University, priority 2020, published 2021)
